# Experimental data taken from US20100267819A1, “PHARMACEUTICAL COMPOSITION FOR DIABETIC NEPHROPATHY AND ITS PREPARATION AND APPLICATION” (Guangzhou Consun Medicine R&D Medicine, priority 2009, published 2010).
# How the values were obtained:
# [1] = tested on: Rat messangial cell cell line HBZY-1; assay: Extracellular matrix accrementition of rat mesangial cells cultured under high glucose (PAS staining); format: cell-based; conditions: high glucose 25 mmol/L, 48 h, extract 0.1 g/L, compounds 1, 0.1, 0.01 μmol/L, co-use 0.06:0.03, 0.05:0.05, 0.03:0.06 μmol/L
# Description: (§1) Take the rat mesangial cells in log phase growth, prepare into unicell suspension (5×10^4 cells/ml) with 5% DMEM medium of newborn calf serum, inoculate to the 24 well plate coated with coverslip for 1 ml/well (cell quantity: 5×10^4/well), incubated under 5% CO2 incubator at 37° C. for 24 hours, added the DMEM medium without serum, incubated 24 hours to make all the cells to anestrum. Discard the supernatant, added 900 μl DMEM medium and 100 μl different concentration amylaceum (each concentration for 3 repeat) and incubated 24 h, 48 h, 72 h and 96 h, respectively. Observed the modeling results after staining with HE and PAS. […] Put the coverslips pre-treatment by poly-L-lysine into 24-well cell culture plates before added the unicell suspension, then cultured these cells until the step of synchronization. […] Each group repeats for 3 times. Then, all the groups are incubated under 5% CO2 incubator at 37° C. for 48 h. After that, take out of the coverslips for HE staining, PAS staining and immunocytochemistry staining Routine HE Staining, Routine PAS Staining, CTGF Staining
# db|db mouse [2] = assay: Kidney weight and kidney index of db|db mouse in diabetic nephropathy; format: in vivo; conditions: after 5 weeks; for Kidned index: kidney weight/body weight×1000
# Description: (§2) During the experiment, all the mouse are bred in lamina flow cage, free to food and water. Water and underpad are changed every day to keep the cage clean, and the water, seedstuff, underpad are stationary. […] All the appliances and food are sterilized everyday. […] Moreover, 10 8-week-old B6 mouse are taken as the normal control. Each group is given 0.4 ml corresponding drug in different concertration or physiological saline by intragastric administration for 5 weeks. Determinate the food-intake and water-intake, weigh every week, determinate the blood glucose every week.
# db|db mouse [3] = assay: Weight of db|db mouse of diabetic nephropathy; format: in vivo; conditions: for Weight: db|db mouse; for weight of db|db mouse: vs model group, P<0.05, intragastric
# Description: as §2
# CTGF = CTGF express of rat mesangial cells cultured under high glucose (immunocytochemistry); format: cell-based; conditions: high glucose 25 mmol/L, 48 h, CTGF staining; extract 0.1 g/L, compounds 1, 0.1, 0.01 μmol/L, co-use 0.06:0.03, 0.05:0.05, 0.03:0.06 μmol/L
# Description: as §1, with “Routine HE Staining, Routine PAS Staining, CTGF Staining” left out
# db|db mouse [4] = assay: Blood glucose of db|db mouse in diabetic nephropathy; format: in vivo; conditions: for Blood glucose value: db|db mouse; for blood glucose of db|db mouse: final phase of administration, vs model group, P<0.05
# Description: as §2
# [5] = tested on: Rat messangial cell cell line HBZY-1; assay: Hypertrophy of rat mesangial cells cultured under high glucose (HE staining); format: cell-based; conditions: high glucose 25 mmol/L, 48 h, extract 0.1 g/L, compounds 1, 0.1, 0.01 μmol/L, co-use 0.06:0.03, 0.05:0.05, 0.03:0.06 μmol/L
# Description: as §1
# db|db mouse [6] = assay: Urine volume, urine total protein and urine creatinine in 24 hours of db|db mouse in diabetic nephropathy; format: in vivo; conditions: for Total protein / Urine creatinine / Urine volume: 24 hour urine after 5 weeks; for urine creatinine in 24 hours / urine total protein in 24 hours / urine volume in 24 hours: vs model group
# Description: as §2
# [7] = 2 weeks, 0.5 mg/kg intragastric
# [8] = 2 weeks, 1.0 mg/kg intragastric
# [9] = 2 weeks, 2.0 mg/kg intragastric
# [10] = 3 weeks, 0.5 mg/kg intragastric
# [11] = 3 weeks, 1.0 mg/kg intragastric
# [12] = 3 weeks, 2.0 mg/kg intragastric
# [13] = 4 weeks, 0.5 mg/kg intragastric
# [14] = 4 weeks, 1.0 mg/kg intragastric
# [15] = 4 weeks, 2.0 mg/kg intragastric
# [16] = 5 weeks, 0.5 mg/kg intragastric
# [17] = 5 weeks, 1.0 mg/kg intragastric
# [18] = 5 weeks, 2.0 mg/kg intragastric
structure (smiles),measurement,setting,value
"COc1cc2ccc(=O)oc2cc1O [7-hydroxy-6-methoxycomarin, 7-hydroxy-6-methoxycoumarin]",extracellular matrix of rat mesangial cells induced by high glucose,[1],decrease the extracellular matrix
same,kidney index,db|db mouse [2],obviously decrease
same,kidney weight,db|db mouse [2],obviously decrease
same,Kidned weight,db|db mouse [2]; 0.5 mg/kg intragastric,0.29 ± 0.02 g
same,Kidned index,db|db mouse [2]; 0.5 mg/kg intragastric,12.6 ± 1.0 ‰
same,Kidned weight,db|db mouse [2]; 1.0 mg/kg intragastric,0.25 ± 0.03 g
same,Kidned weight,db|db mouse [2]; 2.0 mg/kg intragastric,0.24 ± 0.04 g
same,Kidned index,db|db mouse [2]; 2.0 mg/kg intragastric,9.1 ± 1.7 ‰
same,Weight,"db|db mouse [3]; 0 week, 0.5 mg/kg intragastric",23.2 ± 0.6 g
same,Weight,"db|db mouse [3]; 0 week, 1.0 mg/kg intragastric",24.1 ± 0.5 g
same,Weight,"db|db mouse [3]; 0 week, 2.0 mg/kg intragastric",23.9 ± 0.5 g
same,Weight,"db|db mouse [3]; 1 week, 0.5 mg/kg intragastric",30.6 ± 1.2 g
same,Weight,"db|db mouse [3]; 1 week, 1.0 mg/kg intragastric",31.8 ± 1.0 g
same,Weight,"db|db mouse [3]; 1 week, 2.0 mg/kg intragastric",32.0 ± 1.3 g
same,Weight,db|db mouse [3]; [7],36.4 ± 1.5 g
same,Weight,db|db mouse [3]; [8],33.7 ± 1.4 g
same,Weight,db|db mouse [3]; [9],34.3 ± 1.9 g
same,Weight,db|db mouse [3]; [10],40.1 ± 2.5 g
same,Weight,db|db mouse [3]; [11],38.8 ± 1.4 g
same,Weight,db|db mouse [3]; [12],39.5 ± 1.8 g
same,Weight,db|db mouse [3]; [13],43.0 ± 2.1 g
same,Weight,db|db mouse [3]; [14],42.5 ± 2.5 g
same,Weight,db|db mouse [3]; [15],44.0 ± 3.2 g
same,Weight,db|db mouse [3]; [16],47.0 ± 3.9 g
same,Weight,db|db mouse [3]; [17],45.8 ± 3.0 g
same,Weight,db|db mouse [3]; [18],45.7 ± 4.5 g
same,weight of db|db mouse,db|db mouse [3]; 5 weeks,restrain the weight
same,CTGF express of rat mesangial cells induced by high glucose,CTGF,decrease the CTGF express
same,Blood glucose value,"db|db mouse [4]; 1 week, 0.5 mg/kg intragastric",13.3 ± 4.5 mmol/L
same,Blood glucose value,"db|db mouse [4]; 1 week, 1.0 mg/kg intragastric",13.5 ± 4.0 mmol/L
same,Blood glucose value,"db|db mouse [4]; 1 week, 2.0 mg/kg intragastric",13.8 ± 4.7 mmol/L
same,Blood glucose value,db|db mouse [4]; [7],13.4 ± 2.7 mmol/L
same,Blood glucose value,db|db mouse [4]; [8],13.0 ± 3.2 mmol/L
same,Blood glucose value,db|db mouse [4]; [9],13.3 ± 2.7 mmol/L
same,Blood glucose value,db|db mouse [4]; [10],13.5 ± 3.2 mmol/L
same,Blood glucose value,db|db mouse [4]; [11],12.6 ± 4.8 mmol/L
same,Blood glucose value,db|db mouse [4]; [12],13.1 ± 4.7 mmol/L
same,Blood glucose value,db|db mouse [4]; [13],12.1 ± 3.6 mmol/L
same,Blood glucose value,db|db mouse [4]; [14],10.8 ± 2.5 mmol/L
same,Blood glucose value,db|db mouse [4]; [15],10.4 ± 3.9 mmol/L
same,Blood glucose value,db|db mouse [4]; [16],13.0 ± 2.2 mmol/L
same,Blood glucose value,db|db mouse [4]; [17],10.4 ± 2.5 mmol/L
same,Blood glucose value,db|db mouse [4]; [18],11.3 ± 4.4 mmol/L
same,blood glucose of db|db mouse,db|db mouse [4],remarkably decrease the blood glucose
same,hypertrophy of rat mesangial cells induced by high glucose,[5],restrain significantly the hypertrophy
same,Total protein,db|db mouse [6]; 0.5 mg/kg intragastric,1.398 ± 0.372 mg
same,Urine creatinine,db|db mouse [6]; 0.5 mg/kg intragastric,1.85 ± 0.56 mmol/L
same,Urine volume,db|db mouse [6]; 0.5 mg/kg intragastric,0.95 ± 0.34 mL
same,Total protein,db|db mouse [6]; 1.0 mg/kg intragastric,1.102 ± 0.249 mg
same,Urine creatinine,db|db mouse [6]; 1.0 mg/kg intragastric,3.20 ± 0.85 mmol/L
same,Urine volume,db|db mouse [6]; 1.0 mg/kg intragastric,0.75 ± 0.25 mL
same,Total protein,db|db mouse [6]; 2.0 mg/kg intragastric,0.878 ± 0.352 mg
same,Urine creatinine,db|db mouse [6]; 2.0 mg/kg intragastric,2.81 ± 0.76 mmol/L
same,Urine volume,db|db mouse [6]; 2.0 mg/kg intragastric,0.78 ± 0.31 mL
same,urine creatinine in 24 hours,db|db mouse [6],elevate the urine creatinine
same,urine total protein in 24 hours,db|db mouse [6],decrease
same,urine volume in 24 hours,db|db mouse [6],decrease the urine volume
O=c1ccc2ccc(O)cc2o1 [7-hydroxycoumarin],extracellular matrix of rat mesangial cells induced by high glucose,[1],decrease the extracellular matrix
same,kidney index,db|db mouse [2],obviously decrease
same,kidney weight,db|db mouse [2],obviously decrease
same,Kidned weight,db|db mouse [2]; 0.5 mg/kg intragastric,0.28 ± 0.04 g
same,Kidned index,db|db mouse [2]; 0.5 mg/kg intragastric,11.8 ± 1.5 ‰
same,Kidned weight,db|db mouse [2]; 1.0 mg/kg intragastric,0.26 ± 0.03 g
same,Kidned weight,db|db mouse [2]; 2.0 mg/kg intragastric,0.27 ± 0.02 g
same,Kidned index,db|db mouse [2]; 2.0 mg/kg intragastric,9.4 ± 0.3 ‰
same,Weight,"db|db mouse [3]; 0 week, 0.5 mg/kg intragastric",24.5 ± 0.5 g
same,Weight,"db|db mouse [3]; 0 week, 1.0 mg/kg intragastric",23.4 ± 0.5 g
same,Weight,"db|db mouse [3]; 0 week, 2.0 mg/kg intragastric",23.7 ± 0.6 g
same,Weight,"db|db mouse [3]; 1 week, 0.5 mg/kg intragastric",31.5 ± 1.5 g
same,Weight,"db|db mouse [3]; 1 week, 1.0 mg/kg intragastric",30.2 ± 1.4 g
same,Weight,"db|db mouse [3]; 1 week, 2.0 mg/kg intragastric",30.3 ± 0.5 g
same,Weight,db|db mouse [3]; [7],35.8 ± 1.8 g
same,Weight,db|db mouse [3]; [8],34.6 ± 1.4 g
same,Weight,db|db mouse [3]; [9],35.5 ± 1.7 g
same,Weight,db|db mouse [3]; [10],39.4 ± 2.0 g
same,Weight,db|db mouse [3]; [11],40.0 ± 2.7 g
same,Weight,db|db mouse [3]; [12],38.6 ± 1.9 g
same,Weight,db|db mouse [3]; [13],43.9 ± 3.1 g
same,Weight,db|db mouse [3]; [14],43.1 ± 2.8 g
same,Weight,db|db mouse [3]; [15],42.3 ± 2.8 g
same,Weight,db|db mouse [3]; [16],46.4 ± 4.6 g
same,Weight,db|db mouse [3]; [17],45.2 ± 4.1 g
same,Weight,db|db mouse [3]; [18],46.1 ± 5.3 g
same,weight of db|db mouse,db|db mouse [3]; 5 weeks,restrain the weight
same,CTGF express of rat mesangial cells induced by high glucose,CTGF,decrease the CTGF express
same,Blood glucose value,"db|db mouse [4]; 1 week, 0.5 mg/kg intragastric",13.7 ± 4.1 mmol/L
same,Blood glucose value,"db|db mouse [4]; 1 week, 1.0 mg/kg intragastric",13.4 ± 4.6 mmol/L
same,Blood glucose value,"db|db mouse [4]; 1 week, 2.0 mg/kg intragastric",13.0 ± 3.6 mmol/L
same,Blood glucose value,db|db mouse [4]; [7],13.6 ± 2.9 mmol/L
same,Blood glucose value,db|db mouse [4]; [8],13.4 ± 2.6 mmol/L
same,Blood glucose value,db|db mouse [4]; [9],13.1 ± 5.1 mmol/L
same,Blood glucose value,db|db mouse [4]; [10],12.9 ± 2.9 mmol/L
same,Blood glucose value,db|db mouse [4]; [11],13.9 ± 4.3 mmol/L
same,Blood glucose value,db|db mouse [4]; [12],13.7 ± 5.1 mmol/L
same,Blood glucose value,db|db mouse [4]; [13],11.2 ± 4.0 mmol/L
same,Blood glucose value,db|db mouse [4]; [14],11.2 ± 4.4 mmol/L
same,Blood glucose value,db|db mouse [4]; [15],10.1 ± 2.4 mmol/L
same,Blood glucose value,db|db mouse [4]; [16],12.1 ± 1.9 mmol/L
same,Blood glucose value,db|db mouse [4]; [17],10.3 ± 2.0 mmol/L
same,Blood glucose value,db|db mouse [4]; [18],10.6 ± 3.0 mmol/L
same,blood glucose of db|db mouse,db|db mouse [4],remarkably decrease the blood glucose
same,hypertrophy of rat mesangial cells induced by high glucose,[5],restrain significantly the hypertrophy
same,Total protein,db|db mouse [6]; 0.5 mg/kg intragastric,1.205 ± 0.541 mg
same,Urine creatinine,db|db mouse [6]; 0.5 mg/kg intragastric,2.06 ± 0.65 mmol/L
same,Urine volume,db|db mouse [6]; 0.5 mg/kg intragastric,1.03 ± 0.28 mL
same,Total protein,db|db mouse [6]; 1.0 mg/kg intragastric,0.996 ± 0.338 mg
same,Urine creatinine,db|db mouse [6]; 1.0 mg/kg intragastric,2.30 ± 0.71 mmol/L
same,Urine volume,db|db mouse [6]; 1.0 mg/kg intragastric,0.72 ± 0.30 mL
same,Total protein,db|db mouse [6]; 2.0 mg/kg intragastric,1.147 ± 0.305 mg
same,Urine creatinine,db|db mouse [6]; 2.0 mg/kg intragastric,2.79 ± 0.54 mmol/L
same,Urine volume,db|db mouse [6]; 2.0 mg/kg intragastric,0.74 ± 0.33 mL
same,urine creatinine in 24 hours,db|db mouse [6],elevate the urine creatinine
same,urine total protein in 24 hours,db|db mouse [6],decrease
same,urine volume in 24 hours,db|db mouse [6],decrease the urine volume
